# Assay results: patent publication US7045532B2 (Millennium Pharmaceuticals, Inc., priority 1999, dated 2006)
# Target: T1, ACE-2 (Homo sapiens, UniProt Q9BYF1)
# T1 construct: a stop codon inserted after the serine immediately preceding the transmembrane domain; made in house; host or cells: CHO K1 cells (transient transfection, purified from conditioned medium)
# Experiment: ACE-2 Competitive Substrate Assay (ACS Assay)
# Assay type: biochemical
# Details: Ki class per key; compounds tested in 5% DMSO, 12 compound concentrations, 25° C.; Ki=Kiapp/(1+[S]/Km); read-out: Human ACE-2 Activity
# T1 sequence (Q9BYF1 18-740 limits assumed): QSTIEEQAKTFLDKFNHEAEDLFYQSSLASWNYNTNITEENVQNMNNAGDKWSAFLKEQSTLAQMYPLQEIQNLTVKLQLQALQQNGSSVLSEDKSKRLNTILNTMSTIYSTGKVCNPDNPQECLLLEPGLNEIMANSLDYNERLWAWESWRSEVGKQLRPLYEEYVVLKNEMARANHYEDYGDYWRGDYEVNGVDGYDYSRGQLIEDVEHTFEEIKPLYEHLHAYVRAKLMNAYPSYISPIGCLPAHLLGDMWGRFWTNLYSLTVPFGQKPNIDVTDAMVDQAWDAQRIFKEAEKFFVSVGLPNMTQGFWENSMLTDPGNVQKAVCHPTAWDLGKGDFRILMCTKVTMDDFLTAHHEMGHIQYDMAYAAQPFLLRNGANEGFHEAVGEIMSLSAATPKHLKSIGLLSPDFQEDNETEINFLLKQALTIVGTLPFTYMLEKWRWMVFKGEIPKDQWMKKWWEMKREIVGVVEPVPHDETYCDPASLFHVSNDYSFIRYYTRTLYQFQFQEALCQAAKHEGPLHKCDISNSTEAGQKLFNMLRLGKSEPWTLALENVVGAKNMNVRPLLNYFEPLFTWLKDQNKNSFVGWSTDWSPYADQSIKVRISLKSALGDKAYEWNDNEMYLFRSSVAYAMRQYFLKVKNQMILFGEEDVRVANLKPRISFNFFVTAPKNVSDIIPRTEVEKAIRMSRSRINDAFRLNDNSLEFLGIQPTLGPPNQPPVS
row,Ki,Compound
1,100 to 500 nM,CC(C)C[C@H](N[C@@H](Cc1ccc(Oc2cc(Cl)cc(Cl)c2)cc1)C(=O)O)C(=O)O [QM]
2,< 100 nM,"C[C@H](N[C@@H](Cc1cncn1Cc1cc(Cl)cc(Cl)c1)C(=O)O)C(=O)O [PL, (S,S) 2-(1-Carboxy-ethylamino)-3-[3-(3,5-dichloro-benzyl)-3H-imidazol-4-yl]-propionic acid]"
3,100 to 500 nM,"CC(C)C[C@H](N[C@@H](Cc1cccc(Cc2cc(Cl)cc(Cl)c2)c1)C(=O)O)C(=O)O [PG, (S,S)-2-{1-Carboxy-2-[3-(3,5-dichloro-benzyl)-phenyl]-ethylamino}-4-methyl-pentanoic acid]"
4,100 to 500 nM,"CC(C)C[C@H](N[C@@H](Cc1ccc([N+](=O)O)cc1)C(=O)O)C(=O)O [RA, 2-[1-Carboxy-2-(4-nitro-phenyl)-ethylamino]-4-methyl-pentanoic acid]"
5,< 100 nM,"CC(C)C[C@H](N[C@@H](Cc1ccc(-c2ccc(C(F)(F)F)cc2)cc1)C(=O)O)C(=O)O [PC, (S,S)-2-[1-Carboxy-2-(4′-trifluoromethyl-biphenyl-4-yl)-ethylamino]-4-methyl-pentanoic acid]"

# Same assay, conditions: Ki class; compounds tested in 5% DMSO, 12 compound concentrations, Ki=Kiapp/(1+[S]/Km); read-out: Human ACE-2 Activity
row,Compound,Ki
1,"CC(C)C[C@H](N[C@@H](Cn1ccn([C@H](C)c2ccccc2)c1=O)C(=O)O)C(=O)O [MF, 2-[1-Carboxy-2-[2-oxo-3-(1-phenyl-ethyl)-2,3-dihydro-imidazol-1-yl]-ethylamino]-4-methyl-pentanoic acid]",> 500 nM
2,"COC(=O)[C@H](Cc1ccn(C(=O)OC(C)(C)C)n1)N[C@@H](CC(C)C)C(=O)OCc1ccccc1 [ML, 3-[2-(1-Benzyloxycarbonyl3-methyl-butylamino)-2-methoxycarbonyl-ethyl]-pyrazole-1-carboxylicacid tert-butyl ester]",> 500 nM
3,"CC(C)CC(N[C@@H](Cc1cncn1Cc1ccc(OC(F)(F)F)cc1)C(=O)O)C(=O)O (single isomer, unassigned) [HT, 2-[1-Carboxy-2-[3-(4-trifluoromethoxy-benzyl)-3H-imidazol-4-yl]-ethylamino]-4-methyl-pentanoic acid]",> 500 nM
4,"Cc1cc(C)cc(COc2ccc(C[C@H](N[C@@H](CC(C)C)C(=O)O)C(=O)O)cc2)c1 [KT, 2-[1-Carboxy-2-[4-(3,5-dimethyl-benzyloxy)-phenyl]-ethylamino]-4-methyl-pentanoic acid]",100 to 500 nM
5,CC(C)C[C@H](N[C@@H](CCNC(=O)c1ccc2ccccc2c1)C(=O)O)C(=O)O [KE],> 500 nM
6,"CC(C)C[C@H](N[C@@H](Cc1coc(-c2ccccc2)n1)C(=O)O)C(=O)O [LM, (S,S)-2-[1-Carboxy-2-(2-phenyl-oxazol-4-yl)ethylamino]-4-methyl-pentanoic acid]",> 500 nM
7,"CC(C)C[C@H](N[C@@H](Cc1cc(-c2ccccc2)on1)C(=O)O)C(=O)O [KL, 2-[1-Carboxy-2-(5-phenyl-isoxazol-3-yl)-ethylamino]-4-methyl-pentanoic acid]",100 to 500 nM

# Second part, the molecule after the results:
row,Ki,Compound
1,100 to 500 nM,"COc1ccc(-c2ccc(C[C@H](N[C@@H](CC(C)C)C(=O)O)C(=O)O)o2)cc1 [OI, (S,S)-2-{1-Carboxy-2-[5-(4-methoxy-phenyl)-furan-2-yl]-ethylamino}-4-methyl-pentanoic acid]"
2,> 500 nM,"CC(C)C[C@H](N[C@@H](Cc1ccc(-c2ccc(C(F)(F)F)cc2)o1)C(=O)O)C(=O)O [OM, (S,S)-2-{1-Carboxy-2-[5-(4-trifluoromethyl-phenyl)-furan-2-yl]-ethylamino}-4-methyl-pentanoic acid]"
3,100 to 500 nM,"Cc1ccc(-c2ccc(C[C@H](N[C@@H](CC(C)C)C(=O)O)C(=O)O)o2)cc1 [NO, (S,S)-2[1-Carboxy-2-(5-p-tolyl-furan-2-yl)-ethylamino]-4-methyl-pentanoic acid]"
4,> 500 nM,"CC(C)C[C@H](N[C@@H](Cc1cccc(OCc2ccccc2Cl)c1)C(=O)O)C(=O)O [OP, S,S-2-{1-Carboxy-2-[3-(2-chloro-benzyloxy)-phenyl]-ethylamino}-4-methyl-pentanoic acid]"

# Same assay, conditions: Table 3, very good ACE-2 inhibiting compounds; species not given; read-out: ACE-2 Activity, Ki
row,Ki,Compound
1,< 50 nM,"C[C@H](N[C@@H](Cc1cncn1Cc1cc(Cl)cc(Cl)c1)C(=O)O)C(=O)O [PL, (S,S) 2-(1-Carboxy-ethylamino)-3-[3-(3,5-dichloro-benzyl)-3H-imidazol-4-yl]-propionic acid]"
2,50 to 100 nM,"CC(C)C[C@H](N[C@@H](Cc1ccc(-c2ccc(C(F)(F)F)cc2)cc1)C(=O)O)C(=O)O [PC, (S,S)-2-[1-Carboxy-2-(4′-trifluoromethyl-biphenyl-4-yl)-ethylamino]-4-methyl-pentanoic acid]"
